Experimental data taken from US5665745A, “Heterocyclic compounds and their preparation and use” (Eli Lilly and Company, priority 1995, dated 1997).
Like-named read-outs stand apart in the source and are kept apart here.

Key:
[1] = molecular target: muscarinic acetylcholine receptors; assay: inhibition of specific binding of ^3 H-Oxotremorine-M (^3 H-Oxo); parameters: species or system rat (male Wistar; conditions: ^3 H-Oxotremorine 1.0 nM, rat cortex, 30 min. at 25° C.
Method in brief: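 Rat cortex membranes (male Wistar) in 20 mM Hepes pH 7.4 incubated with 1.0 nM ^3H-Oxotremorine-M (final) and test compound for 30 min at 25 °C; arecoline defines non-specific binding. Bound radioactivity by filtration and scintillation counting; IC50 (nM) from a single concentration via Co/Cx mass-action formula, reflecting high- and medium-affinity sites.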

[2] = molecular target: T1, muscarinic receptors (M1 -site, pirenzepine sensitive site) (Rattus norvegicus, UniProt P08482); assay: inhibition of ^3 HPRZ (pirenzepine, [N-methyl-^3 H]) binding to rat cerebral cortex membranes; parameters: species or system rat (male Wistar
T1 construct: from tissue; host or cells: cerebral cortex membranes of male Wistar rats
T1 sequence (P08482 1-460): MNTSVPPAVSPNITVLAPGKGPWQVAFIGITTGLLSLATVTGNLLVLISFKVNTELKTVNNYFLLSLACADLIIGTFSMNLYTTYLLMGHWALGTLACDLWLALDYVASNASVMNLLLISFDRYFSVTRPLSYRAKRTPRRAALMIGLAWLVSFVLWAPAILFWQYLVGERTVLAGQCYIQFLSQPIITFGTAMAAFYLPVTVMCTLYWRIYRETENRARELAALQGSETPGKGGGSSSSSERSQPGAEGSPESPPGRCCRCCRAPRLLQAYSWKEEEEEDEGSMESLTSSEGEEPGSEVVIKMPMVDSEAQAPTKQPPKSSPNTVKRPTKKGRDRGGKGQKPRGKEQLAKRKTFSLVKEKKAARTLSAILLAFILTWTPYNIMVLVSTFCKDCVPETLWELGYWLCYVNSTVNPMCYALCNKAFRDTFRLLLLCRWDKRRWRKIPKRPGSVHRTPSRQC
Method in brief: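 Male Wistar rat cortex membranes in 20 mM Hepes pH 7.4 were incubated with 1.0 nM (final) [3H]pirenzepine for 60 min at 20° C; nonspecific binding was defined with 1 μg/mL atropine. Filtration and scintillation counting were used, and IC50 was calculated from a single concentration assuming mass-action kinetics.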

[3] = ^3 HPRZ 1.0 nM, rat cortex, 60 min. at 20° C., read-out: ^3 HPRZ IC50 (head from b208 on: Pir IC-50)

SMILES	IC50 [1]	IC50 [2, 3]	IC50 [2]
C/C=C/COc1nsnc1O[C@@H]1CN2CCC[C@H]1C2 (relative stereo) [Compound 169, (±)-endo-3-(trans-2-Butenyloxy)-4-(1-azabicyclo[3.2.1]octyl-6-oxy)-1,2,5-thiadiazole]	1 nM	1.9 nM	
CSCCOc1nsnc1O[C@@H]1CN2CCC[C@H]1C2 (relative stereo) [Compound 170, (±)-endo-3-(2-Methylthioethoxy)-4-(1-azabicyclo[3.2.1]octyl-6-oxy)-1,2,5-thiadiazole]	1.5 nM	3 nM	
Cc1ncsc1CCOc1nsnc1O[C@@H]1CN2CCC[C@H]1C2 (relative stereo) [Compound 171, (±)-endo-3-(2-(4-Methyl-1,3-thiazol-5-yl)ethoxy)-4-(1-azabicyclo[3.2.1]octyl-6-oxy)-1,2,5-thiadiazole]	19 nM	27 nM	
CSc1ccc(COc2nsnc2O[C@@H]2CN3CCC[C@H]2C3)cc1 (relative stereo) [Compound 172, (±)-endo-3-(4-Methylthiobenzyloxy)-4-(1-azabicyclo[3.2.1]octyl-6-oxy)-1,2,5-thiadiazole]	5.2 nM	10 nM	
c1csc(COc2nsnc2O[C@@H]2CN3CCC[C@H]2C3)c1 (relative stereo) [Compound 173, (±)-endo-3-(2-Thienylmethoxy)-4-(1-azabicyclo[3.2.1]octyl-6-oxy)-1,2,5-thiadiazole]	1 nM	1.4 nM	
CC#CCCOc1nsnc1O[C@@H]1CN2CCC[C@H]1C2 (relative stereo) [Compound 175, (±)-endo-3-(3-Pentynyloxy)-4-(1-azabicyclo[3.2.1]octyl-6-oxy)-1,2,5-thiadiazole]	0.74 nM	2.7 nM	
CCC#CCCOc1nsnc1O[C@@H]1CN2CCC[C@H]1C2 (relative stereo) [Compound 176, (±)-endo-3-(3-Hexynyloxy)-4-(1-azabicyclo[3.2.1]octyl-6-oxy)-1,2,5-thiadiazole]	1.3 nM	3 nM	
ClCCCOc1nsnc1O[C@@H]1CN2CCC[C@H]1C2 (relative stereo) [Compound 177, (±)-endo-3-(3-Chloropropoxy)-4-(1-azabicyclo[3.2.1]octyl-6-oxy)-1,2,5-thiadiazole]	1.1 nM	2 nM	
c1ccc2cc(CCOc3nsnc3O[C@@H]3CN4CCC[C@H]3C4)ccc2c1 (relative stereo) [Compound 178, (±)-endo-3-[2-(2-Napthyl)ethoxy]-4-(1-azabicyclo[3.2.1]octyl-6-oxy)-1,2,5-thiadiazole]	15 nM	61 nM	
CC(C)=CCCOc1nsnc1O[C@@H]1CN2CCC[C@H]1C2 (relative stereo) [Compound 180, (±)-endo-3-(4-Methyl-3-pentenyloxy)-4-(1-azabicyclo[3.2.1]octyl-6-oxy)-1,2,5-thiadiazole]	4.7 nM	11 nM	
C/C=C\COc1nsnc1O[C@@H]1CN2CCC[C@H]1C2 (relative stereo) [Compound 181, (±)-endo-3-(cis-2-Butenyloxy)-4-(1-azabicyclo[3.2.1]octyl-6-oxy)-1,2,5-thiadiazole]	1.1 nM	2.2 nM	
C1C[C@H]2CN(C1)C[C@H]2Oc1nsnc1OCC1CC1 (relative stereo) [Compound 182, (±)-endo-3-(cyclopropylmethoxy)-4-(1-azabicyclo[3.2.1]octyl-6-oxy)-1,2,5-thiadiazole]	0.6 nM	3.5 nM	
COCCOc1nsnc1O[C@@H]1CN2CCC[C@H]1C2 (relative stereo) [Compound 183, (±)-endo-3-(2-Methoxyethoxy)-4-(1-azabicyclo[3.2.1]octyl-6-oxy)-1,2,5-thiadiazole]	2.6 nM	9.9 nM	
C=CCCOc1nsnc1O[C@@H]1CN2CCC[C@H]1C2 (relative stereo) [Compound 184, (±)-endo-3-(3-Butenyloxy)-4-(1-azabicyclo[3.2.1]octyl-6-oxy)-1,2,5-thiadiazole]	1.2 nM	2.2 nM	
C1C[C@H]2CN(C1)C[C@H]2Oc1nsnc1OCCC1CC1 (relative stereo) [Compound 185]	0.76 nM	2 nM	
C#CCCOc1nsnc1O[C@@H]1CN2CCC[C@H]1C2 (relative stereo) [Compound 186, (±)-endo-3-(3-Butynyloxy)-4-(1-azabicyclo[3.2.1]octyl-6-oxy)-1,2,5-thiadiazole]	0.59 nM	2.8 nM	
FC(F)(F)C(F)(F)C(F)(F)COc1nsnc1O[C@@H]1CN2CCC[C@H]1C2 (relative stereo) [Compound 187, (±)-endo-3-(4,4,4,3,3,2,2-Heptafluorobutoxy)-4-(1-azabicyclo[3.2.1]octyl-6-oxy)-1,2,5-thiadiazole]	2.8 nM		1.6 nM
FC(F)(F)c1cccc(CCOc2nsnc2O[C@@H]2CN3CCC[C@H]2C3)c1 (relative stereo) [Compound 188, (±)-endo-3-[2-(3-Trifluoromethylphenyl)ethoxy]-4-(1-azabicyclo[3.2.1]octyl-6-oxy)-1,2,5-thiadiazole]	12 nM	43 nM	
c1csc(CCOc2nsnc2O[C@@H]2CN3CCC[C@H]2C3)c1 (relative stereo) [Compound 189, (±)-endo-3-[2-(2-Thienyl)ethoxy]-4-(1-azabicyclo[3.2.1]octyl-6-oxy)-1,2,5-thiadiozole]	1.7 nM	3.8 nM	
FC(F)(F)C(F)(F)COc1nsnc1O[C@@H]1CN2CCC[C@H]1C2 (relative stereo) [Compound 190, (±)-endo-3-(3,3,3,2,2,Pentafluoropropoxy)-4-(1-azabicyclo[3.2.1]octyl-6-oxy)-1,2,5-thiadiazole]	3.9 nM	2.5 nM	
c1ccc(OCCOc2nsnc2O[C@@H]2CN3CCC[C@H]2C3)cc1 (relative stereo) [Compound 191, (±)-endo-3-(2-Phenoxyethoxy)-4-(1-azabicyclo[3.2.1]octyl-6-oxy)-1,2,5-thiadiazole]	1.4 nM	9.5 nM	
CCCCc1ccc(COc2nsnc2O[C@@H]2CN3CCC[C@H]2C3)cc1 (relative stereo) [Compound 192, (±)-endo-3-(4-n-Butylbenzyloxy)-4-(1-azabicyclo[3.2.1]octyl-6-oxy)-1,2,5-thiadiazole]	13 nM	21 nM	
COc1ccc(CCCOc2nsnc2O[C@@H]2CN3CCC[C@H]2C3)cc1 (relative stereo) [Compound 193, (±)-endo-3-[3-(4-Methoxyphenyl)propoxy]-4-(1-azabicyclo[3.2.1]octyl-6-oxy)-1,2,5-thiadiazole]	3.7 nM	10 nM	
Fc1ccc(COc2nsnc2O[C@@H]2CN3CCC[C@H]2C3)cc1 (relative stereo) [Compound 194, (±)-endo-3-(4-Fluorobenzyloxy)-4-(1-azabicyclo[3.2.1]octyl-6-oxy)-1,2,5-thiadiazole]	2.1 nM	4 nM	
Fc1ccc(COc2nsnc2O[C@@H]2CN3CCC[C@H]2C3)c(F)c1 (relative stereo) [Compound 195, (±)-endo-3-(2,4-Difluorobenzyloxy)-4-(1-azabicyclo[3.2.1]octyl-6-oxy)-1,2,5-thiadiazole]	4.9 nM	7.5 nM	
FC(F)(F)Oc1ccc(COc2nsnc2O[C@@H]2CN3CCC[C@H]2C3)cc1 (relative stereo) [Compound 196, (±)-endo-3-[4-(Trifluoromethoxy)benzyloxy]-4-(1-azabicyclo[3.2.1]octyl-6-oxy)-1,2,5-thiadiazole]	5.2 nM	8.8 nM	
FCCCCOc1nsnc1O[C@@H]1CN2CCC[C@H]1C2 (relative stereo) [Compound 197, (±)-endo-3-(4-Fluorobutoxy)-4-(1-azabicyclo[3.2.1]octyl-6-oxy)-1,2,5-thiadiazole]	2.3 nM	6.9 nM	
CC(C)(C)c1ccc(COc2nsnc2O[C@@H]2CN3CCC[C@H]2C3)cc1 (relative stereo) [Compound 198, (±)-endo-3-(4-tert-Butylbenzyloxy)-4-(1-azabicyclo[3.2.1]octyl-6-oxy)-1,2,5-thiadiazole]	31 nM	120 nM	
C1CCC(CCOc2nsnc2O[C@@H]2CN3CCC[C@H]2C3)CC1 (relative stereo) [Compound 200, (±)-endo-3-(2-Cyclohexylethoxy)-4-(1-azabicyclo[3.2.1]octyl-6-oxy)-1,2,5-thiadiazole]	16 nM	12 nM	
CC(C)=CCOc1nsnc1O[C@@H]1CN2CCC[C@H]1C2 (relative stereo) [Compound 201, (±)-endo-3-(3-Methyl-2-butenyloxy)-4-(1-azabicyclo[3.2.1]octyl-6-oxy)-1,2,5-thiadiazole]	3.7 nM	3.1 nM	
